Source: BigSolDB 2.1

## CC(C)=CCOc1c2occc2cc2ccc(=O)oc12
In ethanol, 288.2 K
  solubility (mole fraction): 0.00325
In ethanol, 293.2 K
  solubility (mole fraction): 0.00454
In ethanol, 298.2 K
  solubility (mole fraction): 0.0063
In ethanol, 303.2 K
  solubility (mole fraction): 0.00865
In ethanol, 308.2 K
  solubility (mole fraction): 0.0118
In ethanol, 313.2 K
  solubility (mole fraction): 0.016
In ethanol, 318.2 K
  solubility (mole fraction): 0.0215
In ethanol, 323.2 K
  solubility (mole fraction): 0.0288
In ethanol, 328.2 K
  solubility (mole fraction): 0.0382
In water, 288.2 K
  solubility (mole fraction): 7.4e-07
In water, 293.2 K
  solubility (mole fraction): 1.03e-06
In water, 298.2 K
  solubility (mole fraction): 1.06e-06
In water, 303.2 K
  solubility (mole fraction): 1.03e-06
In water, 308.2 K
  solubility (mole fraction): 1.35e-06
In water, 313.2 K
  solubility (mole fraction): 1.46e-06
In water, 318.2 K
  solubility (mole fraction): 1.5e-06
In water, 323.2 K
  solubility (mole fraction): 1.53e-06
In water, 328.2 K
  solubility (mole fraction): 1.81e-06
